assay: recombinant barcode read abundance after kanamycin selection (control-corrected) (log10(CPM+1)); higher = more efficient recombination; sequences stand for … in AGTGCAGAGAAAATCGGCCAGTTTTCTCTGCCTGCAGTCCGCATGCCGT…AGATTTATGCAGCGGACTGCCTTTCTCCCAAAGTGATAAACCGGACAGTATCATGGACCGGTTTTCCCGGTAATCCGTATTTGCAAGGTTGGTTTCACT; site = the 11-nt target
Outline: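 Duplicate cultures were plated either on chloramphenicol/ampicillin LB agar, serving as control, or on chloramphenicol/ampicillin/kanamycin with 0.1 mM IPTG. These came from a pooled E. coli library co-electroporated with a donor plasmid, each member pairing a target with an IS621 bridge RNA target-binding loop. Recombination efficiency equals averaged, control-corrected counts per million of recombinant-junction barcodes. It is listed as log10(CPM+1).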
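Also: IS621 recombinase and bridge RNA in Escherichia coli cells.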

| Sequence | recombinant barcode read abundance (log10) |
| --- | --- |
| TTAGGGTCTTGGGTTCTAACCTGTTGCCT (site TTAGGGTCTAG) | 2.15 |
| TTAGTCGCTTGGGTTCTAACCTGTTGCCT (site TTAGTAGCTAG) | 0.191 |
| TTAGTCGCTTGGGTTCTAACCTGTTGCCT (site TTAGTCGCTAG) | 2.28 |
| TTAGTCGCTTGGGTTCTAACCTGTTGCCT (site TTAGTGGCTAG) | 0.134 |
| TTAGTCGCTTGGGTTCTAACCTGTTGCCT (site TTAGTTGCTAG) | 0.0472 |
| TTAGTTGCTTGGGTTCTAACCTGTTGCCT (site TTAGTAGCTAG) | 0.225 |
| TTAGTTGCTTGGGTTCTAACCTGTTGCCT (site TTAGTCGCTAG) | 0.0596 |
| TTAGTTGCTTGGGTTCTAACCTGTTGCCT (site TTAGTGGCTAG) | 0.0286 |
| TTAGTTGCTTGGGTTCTAACCTGTTGCCT (site TTAGTTGCTAG) | 1.4 |
| TTCAACTCTTGGGTTCTAACCTGTTGCGT (site TTCAACTCTAC) | 1.56 |
| TTCAACTCTTGGGTTCTAACCTGTTGCGT (site TTCAAGTCTAC) | 0.0543 |
| TTCAAGCCTTGGGTTCTAACCTGTTGCGT (site TTCAAGCCTAC) | 1.17 |
| TTCAAGCCTTGGGTTCTAACCTGTTGCGT (site TTCAAGCCTCC) | 0.0397 |
| TTCAGCCCTTGGGTTCTAACCTGTTGCCT (site TACAGCCCTAG) | 0.456 |
| TTCAGCCCTTGGGTTCTAACCTGTTGCCT (site TTCAGCCCTAG) | 0.679 |
| TTCAGTCCTTGGGTTCTAACCTGTTGCAT (site TTAAGTCCTAG) | 0 |
| TTCAGTCCTTGGGTTCTAACCTGTTGCAT (site TTCAGTCCTAT) | 0.509 |
| TTCATGTCTTGGGTTCTAACCTGTTGCCT (site TTCACGTCTAG) | 0.0724 |
| TTCATGTCTTGGGTTCTAACCTGTTGCCT (site TTCATGTCTAG) | 0.811 |
| TTCCGTCCTTGGGTTCTAACCTGTTGCTT (site CGAGTGACTTG) | 0.0499 |
| TTCCGTCCTTGGGTTCTAACCTGTTGCTT (site TTCCGTCCTAA) | 0.0911 |
| TTCTATGCTTGGGTTCTAACCTGTTGCCT (site TCCTGTGCTAG) | 0.24 |

| Sequence | recombinant barcode read abundance (log10) |
| --- | --- |
| TTCTATGCTTGGGTTCTAACCTGTTGCCT (site TTCTATGCTAG) | 0.187 |
| TTCTTCCCTTGGGTTCTAACCTGTTGCCT (site TTCTTCCCTAG) | 0.235 |
| TTCTTCCCTTGGGTTCTAACCTGTTGCCT (site TTGTACCCTAG) | 0.1 |
| TTGAATGCTTGGGTTCTAACCTGTTGCCT (site TTGAATGCTAG) | 1.15 |
| TTGAATGCTTGGGTTCTAACCTGTTGCCT (site TTGACTGCTAG) | 0.0516 |
| TTGAATGCTTGGGTTCTAACCTGTTGCCT (site TTGAGTGCTAG) | 0.0419 |
| TTGAATGCTTGGGTTCTAACCTGTTGCCT (site TTGATTGCTAG) | 0.214 |
| TTGAGGACTTGGGTTCTAACCTGTTGCGT (site TTGAGGACTAC) | 2.22 |
| TTGAGGACTTGGGTTCTAACCTGTTGCGT (site TTGAGGACTTG) | 0.147 |
| TTGATTACTTGGGTTCTAACCTGTTGCCA (site TTGAGTACTCG) | 0.0598 |
| TTGATTACTTGGGTTCTAACCTGTTGCCA (site TTGATTACTTG) | 0.0149 |
| TTGCCGACTTGGGTTCTAACCTGTTGCCA (site TTGACGACTTG) | 0.608 |
| TTGCCGACTTGGGTTCTAACCTGTTGCCA (site TTGCCGACTTG) | 0.503 |
| TTGCCGACTTGGGTTCTAACCTGTTGCCA (site TTGGCGACTTG) | 0.0806 |
| TTGCCGACTTGGGTTCTAACCTGTTGCCA (site TTGTCGACTTG) | 0.116 |
| TTGCCTTCTTGGGTTCTAACCTGTTGCCT (site TAGCCTTCTAG) | 0.106 |
| TTGCCTTCTTGGGTTCTAACCTGTTGCCT (site TCGCCTTCTAG) | 0.0687 |
| TTGCCTTCTTGGGTTCTAACCTGTTGCCT (site TGGCCTTCTAG) | 0.606 |
| TTGCCTTCTTGGGTTCTAACCTGTTGCCT (site TTGCCTTCTAG) | 0.686 |
| TTGGCAGCTTGGGTTCTAACCTGTTGCCT (site TTGGAAGCTAG) | 0.061 |
| TTGGCAGCTTGGGTTCTAACCTGTTGCCT (site TTGGCAGCTAG) | 2.08 |
| TTGGCAGCTTGGGTTCTAACCTGTTGCCT (site TTGGGAGCTAG) | 0.11 |

| Sequence | recombinant barcode read abundance (log10) |
| --- | --- |
| TTGGCAGCTTGGGTTCTAACCTGTTGCCT (site TTGGTAGCTAG) | 0.0352 |
| TTGGCCTCTTGGGTTCTAACCTGTTGCCT (site GTGGCGTCTAG) | 0.15 |
| TTGGCCTCTTGGGTTCTAACCTGTTGCCT (site TTGGCCTCTAG) | 1.27 |
| TTGGCGACTTGGGTTCTAACCTGTTGCCA (site TTGACGACTTG) | 0.221 |
| TTGGCGACTTGGGTTCTAACCTGTTGCCA (site TTGCCGACTTG) | 0.0473 |
| TTGGCGACTTGGGTTCTAACCTGTTGCCA (site TTGGCGACTTG) | 0.118 |
| TTGGCGACTTGGGTTCTAACCTGTTGCCA (site TTGTCGACTTG) | 0.0276 |
| TTGGGAGCTTGGGTTCTAACCTGTTGCTG (site TTCGGAGCTCA) | 0.426 |
| TTGGGAGCTTGGGTTCTAACCTGTTGCTG (site TTGGGAGCTCA) | 2.92 |
| TTGGTACCTTGGGTTCTAACCTGTTGCCT (site TTGGTACCTAG) | 2.41 |
| TTGGTACCTTGGGTTCTAACCTGTTGCCT (site TTGGTCCCTAG) | 0.204 |
| TTGGTACCTTGGGTTCTAACCTGTTGCCT (site TTGGTGCCTAG) | 0.138 |
| TTGGTACCTTGGGTTCTAACCTGTTGCCT (site TTGGTTCCTAG) | 0.116 |
| TTGGTAGCTTGGGTTCTAACCTGTTGCCT (site TTGGAAGCTAG) | 0.255 |
| TTGGTAGCTTGGGTTCTAACCTGTTGCCT (site TTGGCAGCTAG) | 0.148 |
| TTGGTAGCTTGGGTTCTAACCTGTTGCCT (site TTGGGAGCTAG) | 0.127 |
| TTGGTAGCTTGGGTTCTAACCTGTTGCCT (site TTGGTAGCTAG) | 1.63 |
| TTGGTGCCTTGGGTTCTAACCTGTTGCCT (site TTGGTACCTAG) | 1.97 |
| TTGGTGCCTTGGGTTCTAACCTGTTGCCT (site TTGGTCCCTAG) | 0.0442 |
| TTGGTGCCTTGGGTTCTAACCTGTTGCCT (site TTGGTGCCTAG) | 2.13 |
| TTGGTGCCTTGGGTTCTAACCTGTTGCCT (site TTGGTTCCTAG) | 0.0399 |
| TTGTACCCTTGGGTTCTAACCTGTTGCCT (site TTCTTCCCTAG) | 0 |
